Measured values published in patent US9314025B2, “Mixtures of mesoionic pesticides” (E I DU PONT DE NEMOURS AND COMPANY, priority 2009, dated 2016).
Values joined by “and” are separate entries in the source; they are usually repeats but may differ in a detail not shown here. Identical values can stand only once.

Key:
Format in all cases: in vivo
[1] = system: corn planthopper (Peregrinus maidis); settings: for Percent Mortality, Observed, Cmpd A: in vivo
Excerpt: (§1) The presence of a synergistic effect between two active ingredients can be established with the aid of the Colby equation (see Colby, S. R., “Calculating Synergistic and Antagonistic Responses of Herbicide Combinations”, Weeds 1967, 15, 20-22):
(§2) Using the method of Colby, the presence of a synergistic interaction between two active ingredients is established by first calculating the predicted activity, p, of the mixture based on activities of the two components applied alone. In the equation above, A is the biological activity in percentage control of one component applied alone at rate x. The B term is the biological activity in percentage control of the second component applied at rate y. The equation calculates p, the predicted biological activity of the mixture of A at rate x with B at rate y if their effects are strictly additive and no interaction has occurred. If the experimentally established effect of the mixture is greater than the predicted activity, p, synergism is present. To use the Colby equation the active ingredients of the mixture are applied in a test separately as well as in combination.
(§3) Test compounds and compositions were formulated using a solution containing 10% acetone, 90% water and 300 ppm X-77® Spreader Lo-Foam Formula non-ionic surfactant containing alkylarylpolyoxyethylene, free fatty acids, glycols and isopropanol (Loveland Industries, Inc. Greeley, Colo., USA). The formulated compounds or compositions were applied in 1 mL of liquid through a SUJ2 atomizer nozzle with 1/8 JJ custom body (Spraying Systems Co. Wheaton, Ill., USA) positioned 1.27 cm (0.5 inches) above the top of each test unit. Tests were replicated three times. After spraying of the formulated test compound or compositions, each test unit was allowed to dry for 1 h and then a black, screened cap was placed on top. The test units were held for 6 days in a growth chamber at 25° C. and 70% relative humidity. Plant feeding damage was then visually assessed based on foliage consumed.
For evaluating control of corn planthopper (Peregrinus maidis) through contact and/or systemic means, the test unit consisted of a small open container with a 3-4-day-old maize plant (spike) inside. White sand was added to the top of the soil prior to application. Test compounds and compositions were formulated, sprayed, and replicated three times as described for Test A. After spraying, the test units were allowed to dry for 1 h before they were post-infested with ˜15-20 nymphs (18 to 21 day old) by sprinkling them onto the sand with a salt shaker. A black, screened cap was placed on the top of the cylinder. The test units were held for 6 days in a growth chamber at 22-24° C. and 50-70% relative humidity. Each test unit was then visually assessed for insect mortality.
Compound 123 was applied at a rate of 2.5 ppm. Compound 8 was applied at a rate of 0.2 ppm.

[2] = system: green peach aphid (Myzus persicae); settings: for Percent Mortality, Observed, Cmpd A: in vivo
Excerpt: as §1, §2, §3
For evaluating control of green peach aphid (Myzus persicae) through contact and/or systemic means, the test unit consisted of a small open container with a 12-15-day-old radish plant inside. This was pre-infested by placing on a leaf of the test plant 30-40 aphids on a piece of leaf excised from a culture plant (cut-leaf method). The aphids moved onto the test plant as the leaf piece desiccated. After pre-infestation, the soil of the test unit was covered with a layer of sand.
Test compounds and compositions were formulated and sprayed as described for Test A. The applications were replicated three times. After spraying of the formulated test compound or composition, each test unit was allowed to dry for 1 h and then a black, screened cap was placed on top. The test units were held for 6 days in a growth chamber at 19-21° C. and 50-70% relative humidity. Each test unit was then visually assessed for insect mortality.
The results calculated as mean averages of results from the three replicates are listed in Table B. Compound 123 was applied at a rate of 50 ppm. Compound 8 was applied at a rate of 250 ppm.

[3] = system: diamondback moth (Plutella xylostella); test: Test A: control of diamondback moth on radish plant, foliar spray, plant feeding damage assessed visually; settings: for Plant Protection, Observed, Cmpd A: in vivo
Excerpt: as §1, §2
For evaluating control of diamondback moth (Plutella xylostella) the test unit consisted of a small open container with a 12-14-day-old radish plant inside. This was pre-infested with ˜50 neonate larvae that were dispensed into the test unit via corn cob grits using a bazooka inoculator. The larvae moved onto the test plant after being dispensed into the test unit.
as §3
Compound 8 was applied at a rate of 20 ppm.

[4] = system: Western Flower Thrip (Frankliniellla occidentalis); test: Test D: control of Western Flower Thrip on Soleil bean plant through contact and/or systemic means, plant protection; settings: for Plant Protection, Observed, Cmpd A: in vivo
Excerpt: as §1, §2, §3
For evaluating control of the Western Flower Thrip (Frankliniellla occidentalis) through contact and/or systemic means, the test unit consisted of a small open container with a 5-7-day-old Soleil bean plant inside.
Test compounds and compositions were formulated, sprayed, and replicated three times as described for Test A. After spraying, the test units were allowed to dry for 1 hour and then 22-27 adult thrips were added to the unit and then a black, screened cap was placed on top. The test units were held for 7 days at 25° C. and 45-55% relative humidity.
Compound 8 was applied at a rate of 250 ppm.

Compound | Percent Mortality, Observed, Cmpd A [1] [%] | Percent Mortality, Observed, Cmpd A [2] [%] | also measured
CC1(C)[C@H](C(=O)O[C@H](C#N)c2cccc(Oc3ccccc3)c2)[C@@H]1/C=C(\Cl)C(F)(F)F (racemic) [lambda-cyhalothrin] | 45 | 39 | –
COc1ccc(C(F)(F)F)cc1-c1c([O-])[n+](Cc2ccc(F)nc2)c2ccccn2c1=O [Compound 8] | – | – | Plant Protection, Observed, Cmpd 8 ([3]; Cmpd 8 alone at 20 ppm, foliar spray, 6 days, (0 to 10 rating) × 10, mean of 3 replicates): 13 (5×) and 0 (11×) and 40 (6×) and 17 (6×); Percent Mortality, Observed, Cmpd 8 ([1]; Cmpd 8 alone at 0.2 ppm, spray, 6 days, mean of 3 replicates): 38% and 71% and 8% and 55% and 76%; Percent Mortality, Observed, Cmpd 8 ([2]; Cmpd 8 alone at 250 ppm, spray, 6 days, mean of 3 replicates): 25% and 13% and 10% and 15%; Plant Protection, Observed, Cmpd 8 ([4]; Cmpd 8 alone at 250 ppm, spray, 7 days, (0 to 10 rating) × 10, mean of 3 replicates): 53 (5×) and 37 (5×) and 50 (6×) and 10 (6×) and 30 (6×)
O=c1c(-c2cc(OC(F)(F)F)cc(-c3ccc(F)nc3)c2)c([O-])[n+](Cc2cnc(Cl)s2)c2ccccn12 [Compound 123] | – | – | Plant Protection, Observed, Cmpd 123 ([3]; Cmpd 123 alone at 0.1 ppm, foliar spray, 6 days, (0 to 10 rating) × 10, mean of 3 replicates): 33 (5×) and 17 (11×) and 97 (6×) and 80 (6×); Percent Mortality, Observed, Cmpd 123 ([1]; Cmpd 123 alone at 2.5 ppm, spray, 6 days, mean of 3 replicates): 28% and 21% and 8% and 42% and 68%; Percent Mortality, Observed, Cmpd 123 ([2]; Cmpd 123 alone at 50 ppm, spray, 6 days, mean of 3 replicates): 15% and 18% and 22% and 9% and 66%; Plant Protection, Observed, Cmpd 123 ([4]; Cmpd 123 alone at 25 ppm, spray, 7 days, (0 to 10 rating) × 10, mean of 3 replicates): 23 (5×) and 30 (5×) and 33 (6×) and 3 (6×) and 40 (6×)
C/C(=N\C#N)N(C)Cc1ccc(Cl)nc1 [acetamiprid] | 32 | 9 | –
CC(C)N1C(=O)N(c2ccccc2)CS/C1=N\C(C)(C)C [buprofezin] | 44 | 14 | –
CN(C)C(CSC(N)=O)CSC(N)=O [cartap] | 40 | 15 | –
CNC(=O)c1cc(Cl)cc(C)c1NC(=O)c1cc(Br)nn1-c1ncccc1Cl [chlorantraniliprole] | 33 | 11 | –
CCOCn1c(-c2ccc(Cl)cc2)c(C#N)c(Br)c1C(F)(F)F [chlorfenapyr] | 81 | 54 | –
CCOP(=S)(OCC)Oc1nc(Cl)c(Cl)cc1Cl [chlorpyrifos] | 48 | 18 | –
CN/C(=N\[N+](=O)[O-])NCc1cnc(Cl)s1 [clothianidin] | 35 | 16 | –
CNC(=O)c1cc(C#N)cc(C)c1NC(=O)c1cc(Br)nn1-c1ncccc1Cl [cyantraniliprole] | 67 | 10 | –
CN/C(=N/CC1CCOC1)N[N+](=O)[O-] (centres unmarked) [dinotefuran] | 42 | 33 | –
N#Cc1nn(-c2c(Cl)cc(C(F)(F)F)cc2Cl)c(N)c1[S+]([O-])C(F)(F)F (centres unmarked) [fipronil] | 21 | 87 | –
N#CCNC(=O)c1cnccc1C(F)(F)F [flonicamid] | 70 | 14 | Plant Protection, Observed, Cmpd A [3]: 10; Plant Protection, Observed, Cmpd A [4]: 60
Cc1cc(C(F)(C(F)(F)F)C(F)(F)F)ccc1NC(=O)c1cccc(I)c1C(=O)NC(C)(C)CS(C)(=O)=O [flubendiamide] | 42 | 5 | –
COC(=O)N(C(=O)N1CO[C@@]2(C(=O)OC)Cc3cc(Cl)ccc3C2=N1)c1ccc(OC(F)(F)F)cc1 [indoxacarb] | 21 | 32 | Plant Protection, Observed, Cmpd A [3]: 40; Plant Protection, Observed, Cmpd A [4]: 23
CNC(=O)ON=C(C)SC [methomyl] | 80 | 28 | –
COc1cccc(C(=O)NN(C(=O)c2cc(C)cc(C)c2)C(C)(C)C)c1C [methoxyfenozide] | 33 | 16 | –
O=C(NC(=O)c1c(F)cccc1F)Nc1ccc(OC(F)(F)C(F)OC(F)(F)F)c(Cl)c1 (centres unmarked) [novaluron] | 51 | 7 | –
CNC(=O)O/N=C(\SC)C(=O)N(C)C [oxamyl] | 32 | 23 | –
CC1=NNC(=O)N(/N=C/c2cccnc2)C1 [pymetrozine] | 76 | 28 | –
FC(F)(F)c1ccc(OCCCOc2c(Cl)cc(OCC=C(Cl)Cl)cc2Cl)nc1 [pyridalyl] | 62 | 13 | –
CC(COc1ccc(Oc2ccccc2)cc1)Oc1ccccn1 (centres unmarked) [pyriproxifen] | 20 | 10 | Plant Protection, Observed, Cmpd A [3]: 0; Plant Protection, Observed, Cmpd A [4]: 7
CCOC(=O)OC1=C(c2cc(C)ccc2C)C(=O)N[C@]12CC[C@@H](OC)CC2 [spirotetramat] | 65 | 8 | –
N#C/N=C1\SCCN1Cc1ccc(Cl)nc1 [thiacloprid] | 60 | 12 | –
CN1COCN(Cc2cnc(Cl)s2)/C1=N\[N+](=O)[O-] [thiamethoxam] | 29 | 40 | –
CS/C(C)=N\OC(=O)N(C)SN(C)C(=O)O/N=C(\C)SC [thiodicarb] | 64 | 25 | –
CCc1nn(C)c(C(=O)NCc2ccc(Oc3ccc(C)cc3)cc2)c1Cl [tolfenpyrad] | 98 | 77 | –
abamectin | 90 | 91 | Plant Protection, Observed, Cmpd A [3]: 50; Plant Protection, Observed, Cmpd A [4]: 20
spinetoram | 58 | 10 | Plant Protection, Observed, Cmpd A [3]: 40; Plant Protection, Observed, Cmpd A [4]: 27
